Columns and labels:
aFGF [1] = target: T1, aFGF (Homo sapiens, UniProt P05230); experiment: Thermal denaturation (Tm) of aFGF by fluorescence spectroscopy; format: biochemical; settings: PBS pH 7.2
T1 construct: The recombinant derived, 140 amino add form is the preferred form of aFGF; N-terminal methionine (MetHaFGF); made in house; host or cells: microbial cells (preferred embodiment)
Protocol: Fluorescence spectra are obtained with a Spex Fluorolog-2 spectrofiuorometer using a 1 mm pathlength cuvette. Band passes from 1-2 nm are employed with sample absorptivities maintained below 0.1 at 280 nm. The temperature is controlled either manually or automatically as described above. Reproducibility of thermal denaturation temperatures (Tm) is ± 2° C.
To more directly ascertain the effect of heparin on aFGF stability, the temperature-induced denaturation of aFGF as a function of heparin concentration was monitored by fluorescence spectroscopy. Fluorescence spectra were obtained with a Spex Fluorolog-2 spectrofiuorometer using a 1 mm pathlength cuvette. Band passes from 1-2 nm were employed with sample absorptivities maintained below 0.1 at 280 nm. The temperature was controlled either manually or automatically as described above. Reproducibility of thermal denaturation temperatures (Tm) was ±2° C. […] Experiments were carried out at 100 μg/ml protein (6.3 μM) in a PBS buffer at pH 7.2. Curve drawn through data points for clarity only.
Studies of the stabilization of aFGF by heparin are difficult to interpret because of the inherent heterogeneity of heparin preparations, Lane and Lindahl, Eds. Heparin, Chemical and Biological Properties, Clinical Applications, Edward Arnold, London (1989); Jackson, et al., Physiol. Rev. 71: 481-539 (1991). In order to better understand the polyanionic stabilization of aFGF, a series of well-defined fragments of heparin were examined for their ability to stabilize aFGF against thermal denaturation. These enzymatically prepared and purified fragments varied in size from a disaccharide to a decasaccharide. Each fragment was incubated with aFGF at a 1:1 weight ratio in a PBS buffer. The sample was then stressed by temperature and structural changes in aFGF were monitored by both circular dichroism and fluorescence spectroscopy. […] All samples contained 100 μg/ml aFGF (6.3 μM)in a PBS buffer (pH 7.2) with 100 μg/ml of each heparin fragment.
Since these fragments of heparin have a well-defined molecular weight, the molar ratio of aFGF to ligand during these thermal denaturation experiments can be calculated. The Tm of aFGF as a function of the molar concentration of the hexasaccharide was measured by fluorescence spectroscopy. Fluorescence spectra were obtained with a Spex Fluorolog-2 spectrofiuorometer using a 1mm pathlength cuvette. Band passes from 1-2 nm were employed with sample absorptivities maintained below 0.1 at 280 nm. The temperature was controlled either manually or automatically as described above. Reproducibility of thermal denaturation temperatures (Tm) was ±2° C.
Analogous to the heparin experiments illustrated in Example 1 (FIG. 3), aFGF thermal stability was monitored by fluorescence spectroscopy as a function of concentration for several other of the polyanions. […] All samples contained 100 μg/ml of aFGF (6.3 μM) in a PBS buffer at pH 7.2.

[2] = Storage stability of aFGF formulations (protein mass and biological activity); settings: versus EDTA or EGTA
Text: Stabilization of aFGF can be determined by several independent methods including turbidity measurements, spectroscopic techniques, maintenance of protein mass, mitogenic activity and copper catalyzed oxidation. Since acidic fibroblast growth factor is unstable at physiological temperatures (undergoing large structural changes, including aggregation, which results in a loss of mitogenic and wound healing activity), human aFGF stability can be monitored by evaluating the turbidity of the pharmaceutical composition by following the kinetics of temperature induced aggregation of unfolded protein.

aFGF [3] = target: T1, aFGF; experiment: Thermal denaturation (Tm) of aFGF by circular dichroism; format: biochemical; settings: for Tm of aFGF (maximum Tm induced by ligand), circular dichroism: PBS pH 7.2, excess ligand (1-3X by weight; 120 mM sodium sulfate, 10 mM tetrapolyphosphate)
Protocol: Circular Dichroism (CD) spectra are measured with an AVIV 62 DS spectropolarimeter. Samples of aFGF at about 100 μg/ml in a PBS buffer (6 mM sodium phosphate, 120 mM NaCl, pH 7.2) containing various ligands are placed into 1 mm pathlength cells and the cell temperature is controlled by circulating a water/ethylene glycol mixture through the cell holder. Thermal denaturation is carded out under computer control by increasing the temperature of the water bath in 2° C. increments, followed by a two-minute equilibration period at each temperature to allow the sample to reach thermal equilibrium. Reproducibility of the midpoint of these temperature melting curves (Tm) is ±2° C.
The maximum Tm values induced by 12 different ligands as determined by circular dichroism measurements at 228 nm are summarized in the first column of Table II. All of these ligands stabilize aFGF by 15°-25° C. in a manner similar to that originally observed with heparin. […] Furthermore, sulfate unions are found near analogous residues in the crystal structure of basic FGF, Eriksson et al., Proc. Natl. Acad. Sd. USA 88:3441-3445 (1991); Zhang et al., Proc. Natl. Acad. Sci. USA 88:3446-3450 (1991). Consequently, it seemed important to examine the ability of these ligands to stabilize aFGF during thermal denaturation as monitored by both fluorescence and circular dichroism. The Tm value of aFGF increased from 27° C. to 43° C. (fluorescence)and 45° C. to 51° C. (CD) when a 100 molar excess (3X by weight) of (IrCl6)^-3 was present. Similarly, sulfate union (120 mM) produced a species that was even more dramatically stabilized, melting at 57° C. (CD).
^(a) Thermal melting temperatures were measured by circular dichroism
Samples contained […] aFGF in PBS buffer pH 7.2 with excess ligand
(1-3× by weight except for 120 mM sodium sulfate and 10 mM

aFGF [4] = target: T1, aFGF; experiment: Copper-catalyzed oxidation of aFGF thiol groups; format: biochemical; settings: ligand 3X by weight; sodium sulfate 120 mM, tetrapolyphosphate 10 mM
Protocol: Copper-catalyzed oxidation of aFGF is carried out in the following manner. Acidic FGF (about 80 μg/ml) is incubated in a 20 mM Tris, 0.15M potassium chloride, pH 8 solution containing about 20 μM cuptic chloride for varying periods of time at room temperature. The reaction was terminated by the addition of 100 mM EDTA in the same buffer. A solution of about 0.7 ml of 0.25M Tris (about pH 8) containing about 2 mM EDTA and about 7 M GuHC1 is then added followed by about 35 μl of 4 mg/ml of DTNB (Sigma). Samples were incubated for 30 minutes, filtered through a 0.22 micron filter and the optical density measured at about 412 nm to determine sulfhydryl content, Riddles et al., Meth. Enzymol. 9:49-60 (1983). Relative standard deviation of the obtained values during time course experiments is 12%.
Acidic FGF contains three free cysteine residues at positions […], 83 and 117 in the polypeptide chain. […] It has also been shown that the copper catalyzed oxidative formation of a disulfide bond in the wild-type aFGF inactivates the protein in an in vitro mitogenic assay, Ortega et al., J. Biol. Chem. 266:5842-5846 (1991). Therefore, it was of interest to determine the extent to which heparin can stabilize aFGF against inactivation by oxidation. […] Samples contained 80 μg/ml aFGF with (a) 3X heparin by weight, (b) 0.1X heparin by weight and (c) buffer alone. As heparin was introduced and its concentration increased, the rate of copper-catalyzed oxidation decreased. For example, after 20 minutes, greater than 95% of the cysteine residues of aFGF are protected from oxidation with 3X heparin. FIG. 4B illustrates the fraction of remaining reactive thiol groups after a 10-minute incubation with cupric chloride as a function of heparin concentration.
Some aggregation of aFGF occurs under the conditions of these experiments presumably due to at least partial intermolecular disulfide formation. Thus, these measurements could simply be a measurement of the loss of solubility induced by copper association with aFGF. Several experiments, however, argue against this possibility. First, previous work has shown that at dilute protein concentration, copper does indeed catalyze oxidation of thiol groups of aFGF, Ortega et al., J. Biol. Chem. 266:5842-5846 (199 1 ). Second, as a control experiment, the copper-catalyzed oxidation of aFGF was carded out in a buffer containing 6 M GuHCl. Under these denaturing conditions, nearly 100% of the thiol groups in solution were lost after 10 minutes without visible aggregation. […] Regardless of the precise mechanism, copper addition is a distinct mechanism of inactivation compared to thermal stress.
Similar protection against oxidation experiments were carried out with other negatively charged compounds with an excess of ligand (3X by weight except for sodium sulfate at 120 mM and tetrapolyphosphate at 10 mM) added to aFGF before copper catalyzed oxidation. As shown in the second column of Table 2, all of these agents at least partially protect the cysteine residues of aFGF from oxidation.
^(b) Percentage of aFGF thiols remaining in solution after 10 min
incubation with cupric chloride. Experimental conditions are described in
FIG. 10. All samples contained ligand at 3× (by weight) except
sodium sulfate (120 mM) and tetrapolyphosphate (10 mM).

[5] = tested on: BALB/c 3T3 A31 fibroblasts; experiment: Fibroblast mitogenic assay ([3H]-thymidine incorporation into DNA); format: cell-based; set-up: Bioactivity (mitogenic activity of aFGF in the presence of ligand): unit not given here; settings: complete absence of heparin; < = response did not plateau; * = cell death observed
Protocol: Biological activity of the formulation of the instant invention is determined by a modification of the fibroblast mitogenic assay as described by Linemeyer et al. in European Patent Application, Publication No. 259,953. BALB/c 3T3 A31 fibroblasts (American Type Culture Collection) are plated at about 3×10^5 cells per 32 cm^2 wells in culture media containing about 10% heat-inactivated calf serum and incubated in about 7% CO2 (pH 7.35±0.05). The cells become fully quiescent by replacing the media with serum free media at about 6, about 24 hours and about 48 hours later. At about 53 hours after plating samples of the various formulations are added and about 0.12 μg of dexamethasone are added. At about 65 hours each well is supplemented with about 0.4 μCi of [methyl-^3 H]-thymidine (20 Ci/mmole, Dupont) and 0.6 μg of unlabeled thymidine (Sigma), and at 80 hours the cells are processed for determination of radiolabel incorporation into DNA. Each dose-response point is the average of at least quadruplicate determinations. Other cell types such vascular endothelial cells and corneal endothelial cells can be employed to determine in vitro mitogenicity. The procedures are described in detail by Thomas et al., Proc. Natl. Acad. Sci. USA 82:6409-6431 (1985).
^(d) Mitogenic activity of aFGF was measured in the presence of ligan
indicated in the complete absence of heparin.
*indicates cell death observed during assay.
Biological activity of the formulation of the instant invention was determined by a modification of the fibroblast mitogenic assay as described by Linemeyer et al. in European Patent Application, Publication No. 259,953. BALB/c 3T3 A31 fibroblasts (American Type Culture Collection) were plated at 3×10^5 cells per 32 cm^2 well in culture media containing about 10% heat-inactivated calf serum and incubated in 7% CO2 (pH 7.35±0.05). The cells become fully quiescent by replacing the media with serum free media at 6, 24 hours and 48 hours later. At 53 hours after plating samples of the various formulations were added and 0.12 μg of dexamethasone was added, at 65 hours each well was supplemented with 0.4 μCi of [methyl-^3 H]-thymidine (20 Ci/mmole, Dupont) and 0.6 μg of unlabeled thymidine (Sigma), and at 80 hours the cells were processed for determination of radiolabel incorporation into DNA. Each dose-response point is the average of at least quadruplicate determinations. Other cell types such vascular endothelial cells and corneal endothelial cells can be employed to determine in vitro mitogenidty. The procedures are described in detail by Thomas et al., Proc. Natl. Acad. Sci. USA 82:6409-6431 (1985).

T1 sequence (P05230 16-155 limits assumed): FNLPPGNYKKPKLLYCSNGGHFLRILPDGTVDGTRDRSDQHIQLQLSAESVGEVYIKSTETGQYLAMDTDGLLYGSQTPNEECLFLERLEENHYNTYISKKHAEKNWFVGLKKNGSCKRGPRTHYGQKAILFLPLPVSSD

O=C(O)C1=C[C@H](O)[C@@H](OS(=O)(=O)O)[C@H](O[C@H]2[C@H](O)[C@@H](NS(=O)(=O)O)[C@@H](O)O[C@@H]2COS(=O)(=O)O)O1 [disaccharide, Δ.orgate.Ap2S(1→4)-α-D-GlcNp2S6S]
effect of heparin fragment on Tm of aFGF (aFGF [1]; 1:1 weight ratio, fluorescence and circular dichroism): did not influence the Tm of aFGF

N[C@@H](Cc1c[nH]cn1)C(=O)O [histidine]
effectiveness of chelating agent in stabilizing the aFGF-stabilizer-HEC combination [2]: not as effective as EDTA or EGTA

[Cl][Ir-3]([Cl])([Cl])([Cl])([Cl])[Cl] [(IrCl6)^-3, reference compound]
thermal melting temperature (Tm) of aFGF, fluorescence (aFGF [1]; 3X ligand by weight): 43 °C | Tm of aFGF, circular dichroism (aFGF [3]; 3X ligand by weight): 51 °C

O=C(O)CC(O)(CC(=O)O)C(=O)O [citrate]
effectiveness of chelating agent in stabilizing the aFGF-stabilizer-HEC combination [2]: not as effective as EDTA or EGTA

sulfated γ-cyclodextrin
Tm of aFGF (maximum Tm induced by ligand), circular dichroism (aFGF [3]): 70 °C | Cu Oxidation (% SH Lost in 10 Mins) (aFGF [4]): 5%

O=S(=O)([O-])[O-].[Na+].[Na+] [Sodium Sulfate, sodium sulfate]
Tm of aFGF (maximum Tm induced by ligand), circular dichroism (aFGF [3]): 57 °C | Cu Oxidation (% SH Lost in 10 Mins) (aFGF [4]): 25% | Bioactivity (mitogenic activity of aFGF in the presence of ligand) [5]: 0

O=S(=O)(O)OC[C@H]1O[C@@](COS(=O)(=O)O)(O[C@H]2O[C@H](COS(=O)(=O)O)[C@@H](OS(=O)(=O)O)[C@H](OS(=O)(=O)O)[C@H]2OS(=O)(=O)O)[C@@H](OS(=O)(=O)O)[C@@H]1OS(=O)(=O)O [Sucrose octasulfate, sucrose octasulfate]
Tm of aFGF (maximum Tm induced by ligand), circular dichroism (aFGF [3]): 65 °C | Bioactivity (mitogenic activity of aFGF in the presence of ligand) [5]: 2.5
